These compounds were tested on Pimephales promelas (assay: 96 h LC50 (-log10 mol/L); higher = more toxic).
`CCN1C(=O)CC(=O)N(CC)C1=S` was tested, and the “96 h LC50 (-log10 mol/L)” value was 1.65.
For `C#CCCO`, the “96 h LC50 (-log10 mol/L)” value was 3.29.
In the case of `CCSCCSCC`, the “96 h LC50 (-log10 mol/L)” value is reported as 3.4.
For `O=C1C2CC=CCC2C(=O)N1SC(Cl)(Cl)Cl` (stereo not given), the “96 h LC50 (-log10 mol/L)” value was 6.35.
`C#CC1(O)CCCCC1` was tested, and the “96 h LC50 (-log10 mol/L)” value was 2.69.
In the case of `CCOP(=S)(OCC)SC1OCCOC1SP(=S)(OCC)OCC` (stereo not given), the “96 h LC50 (-log10 mol/L)” value is reported as 4.66.
With `C=C(C)C(=C)C` the “96 h LC50 (-log10 mol/L)” value was 4.08.
With `CCOC(=O)C(F)(F)F` the “96 h LC50 (-log10 mol/L)” value was 1.15.
With `CN(C)C(=O)Nc1ccc(Cl)c(Cl)c1` the “96 h LC50 (-log10 mol/L)” value was 4.21.
With `CC(C)OC(C)C` the “96 h LC50 (-log10 mol/L)” value was 2.11.
`OCCN(CCO)c1ccccc1` was tested, and the “96 h LC50 (-log10 mol/L)” value was 2.39.
`CC(C)(C)SC(C)(C)C` was tested, and the “96 h LC50 (-log10 mol/L)” value was 3.7.
With `CNC(=O)ON=C(SC)C(=O)N(C)C` the “96 h LC50 (-log10 mol/L)” value was 4.51.
In the case of `Nc1ccc(Br)cn1`, the “96 h LC50 (-log10 mol/L)” value is reported as 2.99.
`Cc1c(N)cccc1[N+](=O)[O-]` was tested, and the “96 h LC50 (-log10 mol/L)” value was 3.48.
For `C#CC(C)(O)CCC(C)C` (stereo not given), the “96 h LC50 (-log10 mol/L)” value was 3.46.
`CCC(C)C(C)C=O` (stereo not given) was tested, and the “96 h LC50 (-log10 mol/L)” value was 3.85.
With `CCC(C)c1cccc(OC(=O)N(C)Sc2ccccc2)c1` (stereo not given) the “96 h LC50 (-log10 mol/L)” value was 6.91.
`Cc1ncc[nH]1` was tested, and the “96 h LC50 (-log10 mol/L)” value was 2.46.
For `CC(C)Nc1nc(Cl)nc(NC2CC2)n1`, the “96 h LC50 (-log10 mol/L)” value was 4.8.
With `CCCCCCCCS(=O)C(C)Cc1ccc2c(c1)OCO2` (stereo not given) the “96 h LC50 (-log10 mol/L)” value was 5.64.
In the case of `Cc1c([N+](=O)[O-])ccc([N+](=O)[O-])c1N`, the “96 h LC50 (-log10 mol/L)” value is reported as 5.37.
`COCCCNCc1cc(OC)c(OC)c(OC)c1` was tested, and the “96 h LC50 (-log10 mol/L)” value was 3.3.
In the case of `C=CCCCCCCC=C`, the “96 h LC50 (-log10 mol/L)” value is reported as 5.68.
For `O=C(O)C(Br)Br`, the “96 h LC50 (-log10 mol/L)” value was 3.5.
For `O=Cc1cc([N+](=O)[O-])ccc1Cl`, the “96 h LC50 (-log10 mol/L)” value was 4.67.
For `O=S(c1ccccc1)c1ccccc1`, the “96 h LC50 (-log10 mol/L)” value was 3.37.
In the case of `N#Cc1c(Cl)cccc1Cl`, the “96 h LC50 (-log10 mol/L)” value is reported as 4.42.
For `COP(=S)(OC)Oc1ccc(Sc2ccc(OP(=S)(OC)OC)cc2)cc1`, the “96 h LC50 (-log10 mol/L)” value was 4.14.
With `C1OCOCO1` the “96 h LC50 (-log10 mol/L)” value was 1.18.
With `O=C(Oc1ccccc1)c1ccccc1C(=O)Oc1ccccc1` the “96 h LC50 (-log10 mol/L)” value was 6.6.
For `CCOP(=S)(OCC)Oc1ccc(S(C)=O)cc1` (stereo not given), the “96 h LC50 (-log10 mol/L)” value was 3.85.
`CC(C)[C@@H]1CC[C@@H](C)C[C@H]1O` was tested, and the “96 h LC50 (-log10 mol/L)” value was 3.92.
For `CC(=O)c1ccc(Cl)c([N+](=O)[O-])c1`, the “96 h LC50 (-log10 mol/L)” value was 4.56.
In the case of `OC(C(F)(F)F)C(F)(F)F`, the “96 h LC50 (-log10 mol/L)” value is reported as 2.84.
In the case of `CCCCCCCCCCCCN`, the “96 h LC50 (-log10 mol/L)” value is reported as 6.25.
For `O=Cc1cccc(C(F)(F)F)c1`, the “96 h LC50 (-log10 mol/L)” value was 5.28.
For `CCCCCCCCCCc1ccc(N)cc1`, the “96 h LC50 (-log10 mol/L)” value was 6.57.
In the case of `C#CCC(C)O` (stereo not given), the “96 h LC50 (-log10 mol/L)” value is reported as 3.38.
In the case of `CCOP(=S)(OCC)SCSP(=S)(OCC)OCC`, the “96 h LC50 (-log10 mol/L)” value is reported as 5.73.
`CC(C)(C)CN` was tested, and the “96 h LC50 (-log10 mol/L)” value was 2.26.
With `N#Cc1ccccc1C(F)(F)F` the “96 h LC50 (-log10 mol/L)” value was 3.61.
In the case of `CCCCCCCCCCCCCN`, the “96 h LC50 (-log10 mol/L)” value is reported as 6.48.
In the case of `CCCCO`, the “96 h LC50 (-log10 mol/L)” value is reported as 1.59.
With `Cc1ccc(N=C=O)cc1N=C=O` the “96 h LC50 (-log10 mol/L)” value was 3.02.
`BrC(Br)c1ccccc1C(Br)Br` was tested, and the “96 h LC50 (-log10 mol/L)” value was 5.99.
With `Cc1ccc(N(C)C)cc1` the “96 h LC50 (-log10 mol/L)” value was 3.42.
`Cc1c(Cl)cccc1NC=O` was tested, and the “96 h LC50 (-log10 mol/L)” value was 3.56.
With `C=CC(C)(O)CC/C=C(\C)CCC=C(C)C` (stereo not given) the “96 h LC50 (-log10 mol/L)” value was 5.19.
With `COc1ccc(O)cc1` the “96 h LC50 (-log10 mol/L)” value was 3.11.
In the case of `COc1ccc(OC)cc1`, the “96 h LC50 (-log10 mol/L)” value is reported as 3.07.
With `CCC1(CCC(C)C)C(=O)NC(=O)NC1=O` the “96 h LC50 (-log10 mol/L)” value was 3.42.
`O=C(O)[C@@H]1[C@H](C(=O)O)[C@H]2CC[C@@H]1O2` was tested, and the “96 h LC50 (-log10 mol/L)” value was 4.08.
For `CC1=CCC(=C(C)C)CC1`, the “96 h LC50 (-log10 mol/L)” value was 5.05.
For `CC(O)(c1ccc(Cl)cc1)c1ccc(Cl)cc1`, the “96 h LC50 (-log10 mol/L)” value was 5.25.
`CC(C)(c1cc(Br)c(O)c(Br)c1)c1cc(Br)c(O)c(Br)c1` was tested, and the “96 h LC50 (-log10 mol/L)” value was 5.83.
In the case of `CC(O)C#N` (stereo not given), the “96 h LC50 (-log10 mol/L)” value is reported as 4.9.
For `CCNc1nc(NC(C)C)nc(SC)n1`, the “96 h LC50 (-log10 mol/L)” value was 4.38.

These compounds were tested on Tetrahymena pyriformis (assay: 48 h IGC50 (-log10 mol/L); higher = more toxic).
In the case of `CCCCCC#CC(=O)O`, the “48 h IGC50 (-log10 mol/L)” value is reported as 2.94.
In the case of `Nc1c([N+](=O)[O-])cc(Cl)cc1[N+](=O)[O-]`, the “48 h IGC50 (-log10 mol/L)” value is reported as 4.15.
In the case of `O=c1ccc(Cl)c[nH]1`, the “48 h IGC50 (-log10 mol/L)” value is reported as 2.25.
`O=C1C=CC(=O)c2ccccc21` was tested, and the “48 h IGC50 (-log10 mol/L)” value was 5.
With `CC(C)(Br)C(=O)C(C)(C)Br` the “48 h IGC50 (-log10 mol/L)” value was 3.51.
With `OCC#Cc1ccccc1` the “48 h IGC50 (-log10 mol/L)” value was 3.07.
For `CCOC(=O)c1ccc(O)cc1`, the “48 h IGC50 (-log10 mol/L)” value was 3.57.
